Reference: patent publication US20190263796A1, “LIM KINASE INHIBITORS, PHARMACEUTICAL COMPOSITION AND METHOD OF USE IN LIMK-MEDIATED DISEASES” (CELLIPSE, priority 2016, published 2019)

Legend:
Format in all cases: biochemical
[1] = biological target: T1, PI3 Kinase (p110a(E542K)/p85a)(h) (Homo sapiens, UniProt P42336, E542K); test: KinaseProfiler panel: PI3 Kinase (p110a(E542K)/p85a)(h); details: residual activity, 5 μM inhibitor, Km ATP
T1 construct: purchased Merck-Millipore (KinaseProfiler panel service)
Description: (§1) Kinase selectivity was performed on a panel of 58 recombinant protein kinases. The assays were performed in the presence of 5 μM inhibitor at the respective Km ATP for each kinase, using the KinaseProfiler panel service (Merck-Millipore). Residual activity measured in the presence of […] inhibitor is expressed as the percent of activity determined in the absence of inhibitor.

[2] = biological target: T2, IGF-1R(h), activated (Homo sapiens, UniProt P08069); test: KinaseProfiler panel: IGF-1R(h), activated; details: residual activity, 5 μM inhibitor, Km ATP
T2 construct: purchased Merck-Millipore (KinaseProfiler panel service)
Description: as §1

[3] = biological target: T3, SAPK2a(h) (Homo sapiens, UniProt Q16539); test: KinaseProfiler panel: SAPK2a(h); details: residual activity, 5 μM inhibitor, Km ATP
T3 construct: purchased Merck-Millipore (KinaseProfiler panel service)
Description: as §1

[4] = biological target: T4, Flt4(h) (Homo sapiens, UniProt P35916); test: KinaseProfiler panel: Flt4(h); details: residual activity, 5 μM inhibitor, Km ATP
T4 construct: purchased Merck-Millipore (KinaseProfiler panel service)
Description: as §1

[5] = biological target: T5, CaMKIβ(h) (Homo sapiens, UniProt Q6P2M8); test: KinaseProfiler panel: CaMKIβ(h); details: residual activity, 5 μM inhibitor, Km ATP
T5 construct: purchased Merck-Millipore (KinaseProfiler panel service)
Description: as §1

[6] = biological target: T6, cKit(D816H)(h) (Homo sapiens, UniProt P10721, D816H); test: KinaseProfiler panel: cKit(D816H)(h); details: residual activity, 5 μM inhibitor, Km ATP
T6 construct: purchased Merck-Millipore (KinaseProfiler panel service)
Description: as §1

[7] = biological target: T7, MRCKβ(h) (Homo sapiens, UniProt Q9Y5S2); test: KinaseProfiler panel: MRCKβ(h); details: residual activity, 5 μM inhibitor, Km ATP
T7 construct: purchased Merck-Millipore (KinaseProfiler panel service)
Description: as §1

[8] = biological target: T8, ROCK-I(h) (Homo sapiens, UniProt Q13464); test: KinaseProfiler panel: ROCK-I(h); details: residual activity, 5 μM inhibitor, Km ATP
T8 construct: purchased Merck-Millipore (KinaseProfiler panel service)
Description: as §1

[9] = biological target: T9, TrkA(h) (Homo sapiens, UniProt P04629); test: KinaseProfiler panel: TrkA(h); details: residual activity, 5 μM inhibitor, Km ATP
T9 construct: purchased Merck-Millipore (KinaseProfiler panel service)
Description: as §1

[10] = biological target: T10, CaMKIIδ(h) (Homo sapiens, UniProt Q13557); test: KinaseProfiler panel: CaMKIIδ(h); details: residual activity, 5 μM inhibitor, Km ATP
T10 construct: purchased Merck-Millipore (KinaseProfiler panel service)
Description: as §1

[11] = biological target: T11, EGFR(h) (Homo sapiens, UniProt P00533); test: KinaseProfiler panel: EGFR(h); details: residual activity, 5 μM inhibitor, Km ATP
T11 construct: purchased Merck-Millipore (KinaseProfiler panel service)
Description: as §1

[12] = biological target: T12, Flt3(h) (Homo sapiens, UniProt P36888); test: KinaseProfiler panel: Flt3(h); details: residual activity, 5 μM inhibitor, Km ATP
T12 construct: purchased Merck-Millipore (KinaseProfiler panel service)
Description: as §1

[13] = biological target: T13, PAK4(h) (Homo sapiens, UniProt O96013); test: KinaseProfiler panel: PAK4(h); details: residual activity, 5 μM inhibitor, Km ATP
T13 construct: purchased Merck-Millipore (KinaseProfiler panel service)
Description: as §1

[14] = biological target: T14, Ret(h) (Homo sapiens, UniProt P07949); test: KinaseProfiler panel: Ret(h); details: residual activity, 5 μM inhibitor, Km ATP
T14 construct: purchased Merck-Millipore (KinaseProfiler panel service)
Description: as §1

[15] = biological target: T15, Plk1(h) (Homo sapiens, UniProt P53350); test: KinaseProfiler panel: Plk1(h); details: residual activity, 5 μM inhibitor, Km ATP
T15 construct: purchased Merck-Millipore (KinaseProfiler panel service)
Description: as §1

[16] = biological target: T16, Src(1-530)(h) (Homo sapiens, UniProt P12931); test: KinaseProfiler panel: Src(1-530)(h); details: residual activity, 5 μM inhibitor, Km ATP
T16 construct: Src(1-530)(h); purchased Merck-Millipore (KinaseProfiler panel service)
Description: as §1

[17] = biological target: T17, PKCα(h) (Homo sapiens, UniProt P17252); test: KinaseProfiler panel: PKCα(h); details: residual activity, 5 μM inhibitor, Km ATP
T17 construct: purchased Merck-Millipore (KinaseProfiler panel service)
Description: as §1

[18] = biological target: T18, recombinant human LIMK2 fragment 1-638 (Homo sapiens, UniProt P53671); test: LIMK2 kinase assay (Compound 1), anti-phospho-Ser3-cofilin detection; details: 360 μM ATP; GST-cofilin 1 substrate; chemiluminescence detection
T18 construct: recombinant human LIMK2 fragment 1-638; 6His (N); purchased Carna Biosciences 09-106
Description: Compounds were tested in a LIMK2 assay performed in a final volume of 12.5 μl containing 1.5 μl of compound or equivalent amount of DMSO as control, 1 μl (6.25 ng) of N-terminal 6His-tagged recombinant human LIMK2 fragment 1-638 (Carna Biosciences #09-106, in 20 mM MOPS pH=7.0, 1 mM EDTA, 0.01% NP-40, 5% glycerol, 0.1% 2-mercaptoethanol, 1 mg·mL^−1 Bovine Serum Albumin) and a mixture containing 8 mM MOPS pH=7.0, 200 μM EDTA, 110 μM of recombinant GST-cofilin 1, 10 mM MgCl2, and 360 μM ATP. Assays were performed at 30° C. for 10 min before termination by the addition of 40 μl of Laemmli buffer. Samples are then diluted into 1500 μL H2O and 100 μL are then diluted with 200 μL TBS. 5 μL are then spotted on a PVDF membrane (Merck-Millipore Immobilon P IPVH00010). After 20 min incubation RT, membrane was blocked with TBS, 0.1% Tween 20 and 5% BSA for 1 h RT under agitation. The membrane was rinsed 3 times 10 min RT under agitation with TBS, 0.1% Tween-20 (TBST) and then 1 h RT with anti-phospho-Ser3-cofilin (Cell Signaling Technology #3313, 1/1000 dilution) antibody diluted in TBS, 0.1% Tween 20 and 1% BSA. The membrane is then rinsed 3 times 10 min RT under agitation in TBST and incubated for 1 hour with anti-rabbit secondary antibody, horseradish peroxidase conjugated (Jackson Immunoresearch #711-036-152) under agitation at room temperature. […] IC50 LIMK2 is then determined.

[19] = biological target: T19, PAK1(h) (Homo sapiens, UniProt Q13153); test: KinaseProfiler panel: PAK1(h); details: residual activity, 5 μM inhibitor, Km ATP
T19 construct: purchased Merck-Millipore (KinaseProfiler panel service)
Description: as §1

[20] = biological target: T20, Plk3(h) (Homo sapiens, UniProt Q9H4B4); test: KinaseProfiler panel: Plk3(h); details: residual activity, 5 μM inhibitor, Km ATP
T20 construct: purchased Merck-Millipore (KinaseProfiler panel service)
Description: as §1

[21] = biological target: LIMK1(h) (Homo sapiens, UniProt P53667); test: KinaseProfiler panel: LIMK1(h); set-up: purchased Merck-Millipore (KinaseProfiler panel service); details: residual activity, 5 μM inhibitor, Km ATP
Description: as §1

[22] = biological target: T21, PAK5(h) (Homo sapiens, UniProt Q9P286); test: KinaseProfiler panel: PAK5(h); details: residual activity, 5 μM inhibitor, Km ATP
T21 construct: purchased Merck-Millipore (KinaseProfiler panel service)
Description: as §1

[23] = biological target: T22, B-Raf(V599E)(h) (Homo sapiens, UniProt P15056, V600E); test: KinaseProfiler panel: B-Raf(V599E)(h); details: residual activity, 5 μM inhibitor, Km ATP
T22 construct: purchased Merck-Millipore (KinaseProfiler panel service)
Description: as §1

[24] = biological target: T23, MEK1(h) (Homo sapiens, UniProt Q02750); test: KinaseProfiler panel: MEK1(h); details: residual activity, 5 μM inhibitor, Km ATP
T23 construct: purchased Merck-Millipore (KinaseProfiler panel service)
Description: as §1

[25] = biological target: T24, PAK2(h) (Homo sapiens, UniProt Q13177); test: KinaseProfiler panel: PAK2(h); details: residual activity, 5 μM inhibitor, Km ATP
T24 construct: purchased Merck-Millipore (KinaseProfiler panel service)
Description: as §1

[26] = biological target: T25, IR(h), activated (Homo sapiens, UniProt P06213); test: KinaseProfiler panel: IR(h), activated; details: residual activity, 5 μM inhibitor, Km ATP
T25 construct: purchased Merck-Millipore (KinaseProfiler panel service)
Description: as §1

[27] = biological target: T26, AMPKα1(h) (Homo sapiens, UniProt Q13131); test: KinaseProfiler panel: AMPKα1(h); details: residual activity, 5 μM inhibitor, Km ATP
T26 construct: purchased Merck-Millipore (KinaseProfiler panel service)
Description: as §1

T23 sequence (Q02750 whole entry): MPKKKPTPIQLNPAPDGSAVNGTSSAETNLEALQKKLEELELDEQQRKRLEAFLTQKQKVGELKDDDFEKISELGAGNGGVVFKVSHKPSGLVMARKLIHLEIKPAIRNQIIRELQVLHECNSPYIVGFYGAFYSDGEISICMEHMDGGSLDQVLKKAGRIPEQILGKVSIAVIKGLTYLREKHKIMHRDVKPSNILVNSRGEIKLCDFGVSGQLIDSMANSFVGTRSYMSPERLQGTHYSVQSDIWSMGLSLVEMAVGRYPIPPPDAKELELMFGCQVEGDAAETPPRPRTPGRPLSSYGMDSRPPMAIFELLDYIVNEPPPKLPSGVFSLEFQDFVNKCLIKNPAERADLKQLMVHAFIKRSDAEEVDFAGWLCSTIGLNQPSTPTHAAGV
T5 sequence (Q6P2M8 whole entry): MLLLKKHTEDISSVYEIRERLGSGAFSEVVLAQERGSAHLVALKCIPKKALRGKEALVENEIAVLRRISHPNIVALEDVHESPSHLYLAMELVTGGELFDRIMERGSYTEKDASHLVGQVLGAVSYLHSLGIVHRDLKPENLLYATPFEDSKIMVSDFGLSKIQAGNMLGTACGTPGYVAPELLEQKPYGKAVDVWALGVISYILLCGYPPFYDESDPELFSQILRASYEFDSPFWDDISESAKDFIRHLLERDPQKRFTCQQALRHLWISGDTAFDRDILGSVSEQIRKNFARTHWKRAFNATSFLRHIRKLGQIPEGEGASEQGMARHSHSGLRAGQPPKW
T8 sequence (Q13464 whole entry): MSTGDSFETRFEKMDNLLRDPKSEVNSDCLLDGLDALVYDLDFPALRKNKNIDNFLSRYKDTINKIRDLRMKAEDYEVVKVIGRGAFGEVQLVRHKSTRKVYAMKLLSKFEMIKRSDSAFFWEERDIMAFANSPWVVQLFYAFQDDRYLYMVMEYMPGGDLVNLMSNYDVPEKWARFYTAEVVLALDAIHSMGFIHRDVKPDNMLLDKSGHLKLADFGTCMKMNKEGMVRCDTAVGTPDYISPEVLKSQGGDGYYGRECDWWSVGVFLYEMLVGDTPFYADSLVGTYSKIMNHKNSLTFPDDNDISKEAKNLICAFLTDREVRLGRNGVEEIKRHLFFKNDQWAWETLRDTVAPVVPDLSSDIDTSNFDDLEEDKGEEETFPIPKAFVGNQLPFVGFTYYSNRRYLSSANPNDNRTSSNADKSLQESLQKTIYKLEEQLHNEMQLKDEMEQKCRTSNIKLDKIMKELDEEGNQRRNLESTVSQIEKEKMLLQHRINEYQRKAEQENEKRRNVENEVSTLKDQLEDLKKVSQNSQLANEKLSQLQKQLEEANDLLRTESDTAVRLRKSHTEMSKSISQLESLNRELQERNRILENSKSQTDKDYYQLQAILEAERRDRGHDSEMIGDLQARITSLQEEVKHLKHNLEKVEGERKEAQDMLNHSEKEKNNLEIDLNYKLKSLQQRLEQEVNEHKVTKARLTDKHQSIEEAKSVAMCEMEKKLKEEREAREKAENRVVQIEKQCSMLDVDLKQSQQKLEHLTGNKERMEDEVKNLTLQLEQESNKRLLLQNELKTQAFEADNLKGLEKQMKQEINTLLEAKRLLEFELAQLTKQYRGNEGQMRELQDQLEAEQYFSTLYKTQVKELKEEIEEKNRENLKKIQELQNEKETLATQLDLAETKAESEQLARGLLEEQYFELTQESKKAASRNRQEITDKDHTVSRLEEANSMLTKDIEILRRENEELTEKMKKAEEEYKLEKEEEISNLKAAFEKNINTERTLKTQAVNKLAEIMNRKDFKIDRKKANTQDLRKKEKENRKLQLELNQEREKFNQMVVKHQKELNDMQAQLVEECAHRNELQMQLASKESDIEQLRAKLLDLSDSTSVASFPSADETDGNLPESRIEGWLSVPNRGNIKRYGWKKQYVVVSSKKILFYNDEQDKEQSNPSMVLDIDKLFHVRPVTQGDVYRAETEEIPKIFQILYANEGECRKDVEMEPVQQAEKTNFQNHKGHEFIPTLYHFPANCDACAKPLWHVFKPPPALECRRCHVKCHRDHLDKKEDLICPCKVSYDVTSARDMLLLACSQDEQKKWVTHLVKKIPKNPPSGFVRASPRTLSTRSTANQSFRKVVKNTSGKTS
T26 sequence (Q13131 whole entry): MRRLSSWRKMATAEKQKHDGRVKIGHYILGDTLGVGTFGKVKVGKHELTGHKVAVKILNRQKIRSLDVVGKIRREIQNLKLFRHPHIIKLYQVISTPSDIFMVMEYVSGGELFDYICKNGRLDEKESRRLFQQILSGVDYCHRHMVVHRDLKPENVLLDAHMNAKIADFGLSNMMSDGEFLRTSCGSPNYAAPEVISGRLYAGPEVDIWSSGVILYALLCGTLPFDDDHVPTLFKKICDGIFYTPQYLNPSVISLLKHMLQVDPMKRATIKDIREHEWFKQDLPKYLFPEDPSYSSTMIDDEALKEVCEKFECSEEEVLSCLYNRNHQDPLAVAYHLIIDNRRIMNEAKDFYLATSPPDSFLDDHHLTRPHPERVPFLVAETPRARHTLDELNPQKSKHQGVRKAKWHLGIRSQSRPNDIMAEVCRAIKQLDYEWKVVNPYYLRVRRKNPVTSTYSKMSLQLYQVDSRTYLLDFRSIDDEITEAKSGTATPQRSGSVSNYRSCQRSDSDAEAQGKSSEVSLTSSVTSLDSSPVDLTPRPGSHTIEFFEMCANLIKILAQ
T26 sequence (Q9Y478 whole entry partner): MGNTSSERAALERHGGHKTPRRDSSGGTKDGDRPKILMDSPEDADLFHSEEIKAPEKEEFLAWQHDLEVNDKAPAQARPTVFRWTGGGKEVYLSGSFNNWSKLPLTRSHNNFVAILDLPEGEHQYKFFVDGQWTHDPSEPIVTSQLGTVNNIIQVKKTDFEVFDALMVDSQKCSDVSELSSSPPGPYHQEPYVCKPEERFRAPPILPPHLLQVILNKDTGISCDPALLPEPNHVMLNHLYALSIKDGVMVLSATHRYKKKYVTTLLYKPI
T26 sequence (P54619 whole entry partner): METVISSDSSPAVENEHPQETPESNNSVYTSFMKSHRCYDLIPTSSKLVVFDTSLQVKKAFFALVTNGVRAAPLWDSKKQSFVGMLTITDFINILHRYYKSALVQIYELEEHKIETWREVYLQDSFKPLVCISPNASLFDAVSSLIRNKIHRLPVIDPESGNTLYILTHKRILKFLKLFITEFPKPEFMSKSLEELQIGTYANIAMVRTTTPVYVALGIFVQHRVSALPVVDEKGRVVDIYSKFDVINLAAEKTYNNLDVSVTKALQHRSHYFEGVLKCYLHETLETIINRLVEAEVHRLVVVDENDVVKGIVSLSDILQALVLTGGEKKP
T9 sequence (P04629 33-796): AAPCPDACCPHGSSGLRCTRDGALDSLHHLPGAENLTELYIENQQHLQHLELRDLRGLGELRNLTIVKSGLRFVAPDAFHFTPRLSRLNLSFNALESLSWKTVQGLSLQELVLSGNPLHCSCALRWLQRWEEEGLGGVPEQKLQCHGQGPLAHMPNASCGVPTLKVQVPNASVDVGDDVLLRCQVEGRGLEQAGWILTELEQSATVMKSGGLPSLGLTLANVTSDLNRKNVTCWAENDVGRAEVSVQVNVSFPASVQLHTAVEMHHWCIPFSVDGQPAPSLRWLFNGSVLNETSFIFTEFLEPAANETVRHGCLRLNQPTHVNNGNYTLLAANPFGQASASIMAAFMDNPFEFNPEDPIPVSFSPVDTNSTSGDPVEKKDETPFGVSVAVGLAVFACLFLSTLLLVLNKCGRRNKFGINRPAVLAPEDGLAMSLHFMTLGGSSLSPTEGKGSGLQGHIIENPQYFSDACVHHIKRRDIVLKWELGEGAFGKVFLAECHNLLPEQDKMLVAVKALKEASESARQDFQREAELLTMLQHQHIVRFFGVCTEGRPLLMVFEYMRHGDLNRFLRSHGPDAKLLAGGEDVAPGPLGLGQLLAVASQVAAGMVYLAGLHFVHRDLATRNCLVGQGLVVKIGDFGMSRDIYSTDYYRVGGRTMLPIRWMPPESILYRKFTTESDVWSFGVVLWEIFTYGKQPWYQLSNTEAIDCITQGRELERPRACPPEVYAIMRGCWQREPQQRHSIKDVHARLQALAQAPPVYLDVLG
T24 sequence (Q13177 whole entry): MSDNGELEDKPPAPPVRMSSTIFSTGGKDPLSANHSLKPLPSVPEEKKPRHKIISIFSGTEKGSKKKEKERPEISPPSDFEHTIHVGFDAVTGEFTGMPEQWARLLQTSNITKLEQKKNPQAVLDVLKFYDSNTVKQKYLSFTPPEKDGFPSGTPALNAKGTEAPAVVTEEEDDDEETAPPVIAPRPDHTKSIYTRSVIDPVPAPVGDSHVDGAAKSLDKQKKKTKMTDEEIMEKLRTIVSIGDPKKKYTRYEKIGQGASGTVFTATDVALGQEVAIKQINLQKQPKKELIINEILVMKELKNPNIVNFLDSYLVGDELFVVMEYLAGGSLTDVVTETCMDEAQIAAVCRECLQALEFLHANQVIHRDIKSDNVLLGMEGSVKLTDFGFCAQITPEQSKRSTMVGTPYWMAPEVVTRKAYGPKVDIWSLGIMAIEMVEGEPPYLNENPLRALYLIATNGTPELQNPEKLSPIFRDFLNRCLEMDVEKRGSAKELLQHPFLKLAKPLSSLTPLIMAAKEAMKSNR
T22 sequence (P15056 416-766 V600E limits assumed): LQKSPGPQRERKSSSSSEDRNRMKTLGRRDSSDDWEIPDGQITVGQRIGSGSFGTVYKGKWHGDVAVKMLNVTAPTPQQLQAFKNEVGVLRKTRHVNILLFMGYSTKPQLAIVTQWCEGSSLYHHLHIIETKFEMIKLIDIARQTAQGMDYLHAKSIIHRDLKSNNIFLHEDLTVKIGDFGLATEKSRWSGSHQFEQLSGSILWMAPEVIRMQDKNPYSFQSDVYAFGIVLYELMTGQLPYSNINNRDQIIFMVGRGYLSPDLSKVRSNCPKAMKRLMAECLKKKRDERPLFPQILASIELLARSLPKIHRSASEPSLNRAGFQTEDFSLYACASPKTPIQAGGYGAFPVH

Structure (SMILES): CC(C)(C)c1nc(-c2cccc(NS(=O)(=O)c3c(F)cccc3F)c2F)c(-c2ccnc(Nc3ccccc3)n2)s1 [Compound 1, N-(3-(2-(tert-butyl)-5-(2-(phenylamino)pyrimidin-4-yl)thiazol-4-yl)-2-fluorophenyl)-2,6-difluorobenzenesulfonamide]
- activity at 5 µM [1]: ≥ 50%
- activity at 5 µM [2]: ≥ 50%
- activity at 5 µM [3]: ≥ 50%
- activity at 5 µM [4]: 3 to 10%
- activity at 5 µM [5]: ≥ 50%
- activity at 5 µM [6]: 10 to 50%
- activity at 5 µM [7]: ≥ 50%
- activity at 5 µM [8]: ≥ 50%
- activity at 5 µM [9]: 10 to 50%
- activity at 5 µM [10]: ≥ 50%
- activity at 5 µM [11]: ≥ 50%
- activity at 5 µM [12]: ≥ 50%
- activity at 5 µM [13]: ≥ 50%
- activity at 5 µM [14]: 10 to 50%
- activity at 5 µM [15]: ≥ 50%
- activity at 5 µM [16]: 3 to 10%
- activity at 5 µM [17]: ≥ 50%
- IC50 [18]: 100 to 500 nM
- activity at 5 µM [19]: ≥ 50%
- activity at 5 µM [20]: ≥ 50%
- activity at 5 µM [21]: < 3%
- activity at 5 µM [22]: ≥ 50%
- activity at 5 µM [23]: 3 to 10%
- activity at 5 µM [24]: ≥ 50%
- activity at 5 µM [25]: ≥ 50%
- activity at 5 µM [26]: ≥ 50%
- activity at 5 µM [27]: ≥ 50%
